Test results taken from PMC7849180 (Frontiers in Pharmacology, 2020).

Test: Plasma pharmacokinetics, multiple ascending dose (MAD), 10 days
Format: in vivo, human
Description: MAD study was conducted after evaluating the tolerance of the single dose 100 mg cohort. In MAD part, volunteers were designed into five cohorts (100 mg q24h, 150 mg q24h, 100 mg q12h, 200 mg q24h, 150 mg q12h). […] The MAD part was initiated after the safety and tolerance evaluation from SAD 100 mg cohorts. Progression to higher MAD doses was allowed after review the safety data of the prior MAD cohorts.
For MAD cohorts, blood samples were collected at 0, 0.25, 0.5, 1, 1.5, 2, 3, 4, 5, 6, 8 and 12 h on day 1; 0 h on day 2, 3, 4, 6 and 7; 0, 0.25, 0.5, 1, 1.5, 2, 3, 4, 5, 6, 8, 12, 24, 36 and 48 h on day 10. In food effect cohort, blood samples were collected at 0, 0.25, 0.5, 1, 1.5, 2, 3, 4, 5, 6, 8, 12, 24, 36, 48, 72, 96 and 120 h in period one of group A; 0, 0.25, 0.5, 1, 1.5, 2, 3, 4, 5, 6, 8, 12, 24, 36 and 48 h in period two of group A and the two periods of group B. Blood samples were centrifuged at 3,000 rpm for 10 min at 2–8 °C and stored at -80 °C until liquid chromatography-mass spectrophotometry (LC-MS/MS) analysis. Urine and feces samples were collected in period one of group A of food effect cohort with the intervals 0, 0–6, 6–12, 12–24, 24–48, 48–72, 72–96, 96–120 and 0–120 h, respectively. […]

Substance: Jaktinib
- accumulation factor Rac (90% CI) (100 mg q12h): 1.24
- Cmax, geometric mean (CV%) (100 mg q12h, Day 1): 204.68 (36.2) ng/ml
- Tmax, median (min–max) (100 mg q12h, Day 1): 1.50 (0.50–4.00) h
- Cmax, geometric mean (CV%) (100 mg q12h, Day 10): 226.87 (33.2) ng/ml
- Cmin,ss, geometric mean (CV%) (100 mg q12h, Day 10): 27.565 (96.3) ng/ml
- Fluctuation, geometric mean (CV%) (100 mg q12h, Day 10): 204.463 (31.3) %
- Tmax, median (min–max) (100 mg q12h, Day 10): 3.00 (0.50–4.00) h
- accumulation factor Rac (90% CI) (100 mg q24h): 0.98
- Cmax, geometric mean (CV%) (100 mg q24h, Day 1): 182.68 (73.4) ng/ml
- Tmax, median (min–max) (100 mg q24h, Day 1): 2.00 (1.00–4.00) h
- Cmax, geometric mean (CV%) (100 mg q24h, Day 10): 150.84 (76.7) ng/ml
- Cmin,ss, geometric mean (CV%) (100 mg q24h, Day 10): 8.217 (169.4) ng/ml
- Fluctuation, geometric mean (CV%) (100 mg q24h, Day 10): 290.146 (45.7) %
- Tmax, median (min–max) (100 mg q24h, Day 10): 1.50 (1.00–4.00) h
- accumulation factor Rac (90% CI) (150 mg q12h): 1.38
- Cmax, geometric mean (CV%) (150 mg q12h, Day 1): 295.08 (52.6) ng/ml
- Tmax, median (min–max) (150 mg q12h, Day 1): 2.00 (1.00–4.00) h
- Cmax, geometric mean (CV%) (150 mg q12h, Day 10): 470.78 (38.2) ng/ml
- Cmin,ss, geometric mean (CV%) (150 mg q12h, Day 10): 26.868 (39.2) ng/ml
- Fluctuation, geometric mean (CV%) (150 mg q12h, Day 10): 274.265 (17.3) %
- Tmax, median (min–max) (150 mg q12h, Day 10): 1.25 (0.50–2.00) h
- accumulation factor Rac (90% CI) (150 mg q24h): 1.16
- Cmax, geometric mean (CV%) (150 mg q24h, Day 1): 236.94 (88.6) ng/ml
- Tmax, median (min–max) (150 mg q24h, Day 1): 3.00 (1.00–6.00) h
- Cmax, geometric mean (CV%) (150 mg q24h, Day 10): 250.23 (70.3) ng/ml
- Cmin,ss, geometric mean (CV%) (150 mg q24h, Day 10): 14.342 (71.1) ng/ml
- Fluctuation, geometric mean (CV%) (150 mg q24h, Day 10): 281.461 (29.1) %
- Tmax, median (min–max) (150 mg q24h, Day 10): 2.50 (1.00–5.00) h
- accumulation factor Rac (90% CI) (200 mg q24h): 0.94
- Cmax, geometric mean (CV%) (200 mg q24h, Day 1): 327.37 (36.6) ng/ml
- Tmax, median (min–max) (200 mg q24h, Day 1): 2.50 (1.50–4.00) h
- Cmax, geometric mean (CV%) (200 mg q24h, Day 10): 296.88 (58.3) ng/ml
- Cmin,ss, geometric mean (CV%) (200 mg q24h, Day 10): 10.798 (125.4) ng/ml
- Fluctuation, geometric mean (CV%) (200 mg q24h, Day 10): 390.098 (38.5) %
- Tmax, median (min–max) (200 mg q24h, Day 10): 3.00 (1.50–4.00) h
- time to steady state (continuous administration, trough concentrations): approximately 4 days
